Data published in article PMC5597618, “Identification and characterization of the novel reversible and selective cathepsin X inhibitors” (Scientific Reports, 2017).
Read-outs that look alike come from different tables or passages of the source.

Assays:
cathepsin X [1] = biological target: T1, cathepsin X (Homo sapiens, UniProt Q9UBR2); experiment: Determination of relative inhibition of cathepsin X; type: biochemical; set-up: made in house; host or cells: Pichia pastoris
Method: (§1) Recombinant or native human cathepsins were used: recombinant cathepsin X and cathepsin S were expressed in Pichia pastoris, recombinant cathepsins B and L in E. coli, [43], native cathepsin H was isolated from human liver. Assay buffers for determining activities of cathepsins X and L consisted of 100 mM sodium acetate buffer, pH 5.5, for cathepsins H, S and B (endopeptidase activity) of 100 mM phosphate buffer pH 6.8, 6.5 and 6.0, respectively and for cathepsin B (exopeptidase activity) of 60 mM acetate buffer pH 5.0. Each assay buffer contained 0.01% Triton X-100 to prevent false positive inhibition due to aggregation of compounds[45], 5 mM cysteine, 1.5 mM EDTA and 0.1% PEG 8000. Enzymes were activated at 37 °C for 5 min before the assays.
Abz-FEK(Dnp)-OH was used as cathepsin X specific substrate in activity assays. 90 μL of activated cathepsin X (20 nM) was added to a black 96-well plate with 5 μL of substrate (3.25 μM final concentration) and 5 μL of the compound (50 μM final concentration). The reaction was monitored continuously at 420 nm ± 10 nm with excitation at 320 nm ± 20 nm and at 37 °C. Relative inhibition (%) was calculated with the equation (1 − v i/v 0) × 100, where v i is reaction velocity in the presence of the compound and v 0 is reaction velocity without the compound.

cathepsin X [2] = biological target: T1, cathepsin X; experiment: Determination of Ki values and inhibition mechanism against cathepsin X (Abz-FEK(Dnp)-OH substrate); type: biochemical; set-up: made in house; host or cells: Pichia pastoris; settings: for Inhibition mechanism: ENZO
Method: as §1
Ki was determined by measuring the initial rate of hydrolysis at three different substrate concentrations (Supplementary Table S2) in the presence of seven different compound concentrations (0, 20, 40, 60, 80, 100 and 200 μM). 90 μL of the activated cathepsin was added to a black 96-well plate with 5 μL of the substrate and 5 μL of the compound. Formation of the fluorescent degradation product was monitored continuously at 460 nm ± 10 nm with excitation at 380 nm ± 20 nm (for AMC substrates) and, as noted above for Abz substrates, at 37 °C. All measurements were performed twice and in duplicate. The resulting data were analyzed by non-linear regression using the software SigmaPlot®, Enzyme Kinetics Module™ 1.3 and were fitted to the equation v = v max [S]/([S] (1 + [I]/αK i ) + K m (1 + [I]/K i )) (first group of compounds). For Ki determination against cathepsin X for the compounds from the second group, progress curves in the absence and presence of each putative inhibitor were fitted to the reaction mechanism presented in Fig. 3b. In this case the resulting data as well as reactivation curves were fitted to the equation system presented in Fig. 3c using ENZO application. For calculation of kinetic parameters from reaction progress curves the fluorescence coefficient for conversion of arbitrary fluorescence units to concentration was first determined. The fluorescence coefficient was calculated as the slope from the plot of initial substrate concentration vs. height of the plateau of the progress curve after complete hydrolysis of increasing concentrations of substrate, using linear regression.
Supplementary Table S2. Substrates used for the various cathepsins and their concentrations […]
Enzyme Substrate Concentration (µM) Reference/Company cathepsin X Abz-FEK(Dnp)-OH 3.25, 6.5, 13 Puzer et al.3 cathepsin B - endopept. Z-RR-AMC 60, 180, 360 Bachem cathepsin B - exopept. Abz-GIVRAK(Dnp)-OH 1, 3, 6 Bachem cathepsin S Z-VVR-AMC 0.5, 1, 1.5 Biomol cathepsin L Z-FR-AMC 0.5, 1, 4 Bachem cathepsin H Z-R-AMC 20, 80, 160 Biomol […]

[3] = second group, 50 μM compound, 1 h preincubation, read-out: % inhibition (1 h preincubation)
[4] = first group, SigmaPlot non-linear regression at 3 different substrate concentrations
[5] = screening at 50 μM compound, read-out: relative inhibition of cathepsin X
[6] = second group, progress curve analysis with ENZO

T1 sequence (Q9UBR2 62-303): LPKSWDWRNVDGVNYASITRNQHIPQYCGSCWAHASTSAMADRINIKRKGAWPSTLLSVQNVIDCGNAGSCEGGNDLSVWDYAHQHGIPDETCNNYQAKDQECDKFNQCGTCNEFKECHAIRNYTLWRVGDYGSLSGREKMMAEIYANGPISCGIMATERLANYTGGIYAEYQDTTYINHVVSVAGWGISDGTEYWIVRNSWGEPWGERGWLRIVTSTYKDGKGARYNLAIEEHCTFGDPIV

SMILES | inhibition at 50 µM (cathepsin X [1]; [3]) [%] | further results
COc1cc2c(cc1OC)CN(C(=O)CSc1n[nH]c(N)n1)CC2 [Compound 7, 2-((5-Amino-1H-1,2,4-triazol-3-yl)thio)-1-(6,7-dimethoxy-3,4-dihydroisoquinolin-2(1 H)-yl)ethanone] | 0 | relative inhibition of cathepsin X (cathepsin X [1]; screening at 50 μM compound): devoid of any inhibitory activity
Cc1ccc(C(=O)CSc2n[nH]c(N)n2)cc1 [Compound 13, 2-((5-Amino-1H-1,2,4-triazol-3-yl)thio)-1-(p-tolyl)ethanone] | 22 | 
O=C(NC1CC2C(=O)NCC(=O)N2C1)c1ccc2cccnc2n1 (stereo not drawn) [Compound 5] |  | Ki (cathepsin X [2]; [4]): 136 µM; inhibition at 50 µM (cathepsin X [1]; [5]): 60 to 75%
N#Cc1c(NC(=O)c2cc(OCCCN)ccc2Cl)sc2c1CCCC2 [Compound 4, 5-(3-Aminopropoxy)-2-chloro-N-(3-cyano-4,5,6,7-tetrahydrobenzo[b]thiophen-2-yl)benzamide] |  | Ki (cathepsin X [2]; [4]): 230 ± 2.9 µM; inhibition at 50 µM (cathepsin X [1]; [5]): 60 to 75%
Nc1nc(SCC(=O)c2ccc(Oc3ccccc3)cc2)n[nH]1 [Compound 9, 2-((5-Amino-1H-1,2,4-triazol-3-yl)thio)-1-(4-phenoxyphenyl)ethanone] | 27 | 
O=C(CSc1nnc(N2CCCC2)n1C1CC1)c1ccc2c(c1)OCCO2 [Compound 14, 2-((4-Cyclopropyl-5-(pyrrolidin-1-yl)-4H-1,2,4-triazol-3-yl)thio)-1-(2,3-dihydrobenzo[b][1,4]dioxin-6-yl)ethanone] | 74 | Inhibition mechanism (cathepsin X [2]; second group): competitive; Ki (cathepsin X [2]; [6]): 5.41 ± 0.19 µM; inhibition at 50 µM (cathepsin X [1]; [5]): > 70%
N#Cc1c(NC(=O)c2cc(OCCN)ccc2Cl)sc2c1CCCC2 [Compound 3, 5-(2-Aminoethoxy)-2-chloro-N-(3-cyano-4,5,6,7-tetrahydrobenzo[b]thiophen-2-yl)benzamide] |  | Ki (cathepsin X [2]; [4]): 260 ± 31.9 µM; inhibition at 50 µM (cathepsin X [1]; [5]): 60 to 75%
Nc1nc(SCC(=O)c2ccc(-c3ccccc3)cc2)n[nH]1 [Compound 10, 1-([1,1′-Biphenyl]-4-yl)-2-((5-amino-1H-1,2,4-triazol-3-yl)thio)ethanone] | 64 | 
Cc1[nH]c2ccccc2c1C(=O)CSc1nnc[nH]1 [Compound 6, 2-((4H-1,2,4-triazol-3-yl)thio)-1-(2-methyl-1H-indol-3-yl)ethanone] | 44 | 
O=C(CSc1nc[nH]n1)c1ccc2c(c1)OCCO2 [Compound 11, 2-((1H-1,2,4-triazol-3-yl)thio)-1-(2,3-dihydrobenzo[b][1,4]dioxin-6-yl) ethanone] | 72 | 
Nc1nc(SCC(=O)c2ccc3c(c2)OCO3)n[nH]1 [Compound 8, 2-((5-Amino-1H-1,2,4-triazol-3-yl)thio)-1-(benzo[d][1,3]dioxol-5-yl) ethanone] | 67 | 

More lines, main results first:

inhibition at 50 µM (cathepsin X [1]; [3]) [%] | SMILES | further results
50 | COc1ccccc1C(=O)CSc1n[nH]c(N)n1 [Compound 25, 2-((5-Amino-1H-1,2,4-triazol-3-yl)thio)-1-(2-methoxyphenyl)ethan-1-one] | 
72 | O=C(CSc1nncn1-c1ccccc1)c1ccc2c(c1)OCCO2 [Compound 23, 1-(2,3-Dihydrobenzo[b][1,4]dioxin-6-yl)-2-((4-phenyl-4H-1,2,4-triazol-3-yl)thio)ethan-1-one] | 
39 | COc1ccc(C(=O)CSc2n[nH]c(N)n2)cc1F [Compound 21, 2-((5-Amino-1H-1,2,4-triazol-3-yl)thio)-1-(3-fluoro-4-methoxyphenyl)ethan-1-one] | 
73 | COc1ccccc1-n1cnnc1SCC(=O)c1ccc2c(c1)OCCO2 [Compound 24, 1-(2,3-Dihydrobenzo[b][1,4]dioxin-6-yl)-2-((4-(2-methoxyphenyl)-4H-1,2,4-triazol-3-yl)thio)ethan-1-one] | 
27 | Nc1cc(N)nc(SCC(=O)c2ccc3c(c2)OCCO3)n1 [Compound 19, 2-((4,6-Diaminopyrimidin-2-yl)thio)-1-(2,3-dihydrobenzo[b][1,4]dioxin-6-yl)ethan-1-one] | 
23 | Cc1[nH]c2ccccc2c1C(=O)C(C)Sc1n[nH]c(N)n1 (stereo not drawn) [Compound 15, 2-((5-Amino-1H-1,2,4-triazol-3-yl)thio)-1-(2-methyl-1H-indol-3-yl)propan-1-one] | 
25 | COc1ccc(C(=O)C(C)Sc2nncn2C)cc1OC (stereo not drawn) [Compound 18, 1-(3,4-Dimethoxyphenyl)-2-((4-methyl-4H-1,2,4-triazol-3-yl)thio)propan-1-one] | 
72 | O=C(CSc1nc(C2CC2)n[nH]1)c1ccc2c(c1)OCCO2 [Compound 17, 2-((3-Cyclopropyl-1H-1,2,4-triazol-5-yl)thio)-1-(2,3-dihydrobenzo[b][1,4]dioxin-6-yl)ethan-1-one] | Inhibition mechanism (cathepsin X [2]; second group): competitive; Ki (cathepsin X [2]; [6]): 7.35 ± 0.28 µM; inhibition at 50 µM (cathepsin X [1]; [5]): > 70%
15 | N#Cc1ccc(C(=O)CSc2n[nH]c(N)n2)cc1 [Compound 16, 4-(2-((5-Amino-1H-1,2,4-triazol-3-yl)thio)acetyl)benzonitrile] | 
